{"source": "patent US10316097B2", "about": "“Method for the treatment of epilepsy, epileptogenesis, seizures or convulsions by an anti-colony-stimulating factor 1 receptor (CSF-1R) antibody” (UCB BIOPHARMA SPRL, priority 2015, dated 2019)", "origin": "cited, not measured here", "key": {"[1]": {"tested_on": "TNF-α-driven inflammation in the brain", "conditions": "systemic administration in rodents"}, "[2]": {"conditions": "systemic administration in rodents"}}}
{"substance": "etanercept", "values": [{"measurement": "Effect on TNF-α-driven inflammation in the brain", "setting": "[1]", "value": "does not affect"}, {"measurement": "Crossing of the blood-brain barrier (BBB)", "setting": "[2]", "value": "does not cross the blood-brain barrier"}]}
